For two compounds, EC50 results are on record in BindingDB's records for doi:10.7270/Q2D798VP (Broad Institute, 2009).

This assay has as its target T1, Zinc finger protein mex-5 (Caenorhabditis elegans, UniProt Q9XUB2).
T1 sequence (Q9XUB2 whole entry): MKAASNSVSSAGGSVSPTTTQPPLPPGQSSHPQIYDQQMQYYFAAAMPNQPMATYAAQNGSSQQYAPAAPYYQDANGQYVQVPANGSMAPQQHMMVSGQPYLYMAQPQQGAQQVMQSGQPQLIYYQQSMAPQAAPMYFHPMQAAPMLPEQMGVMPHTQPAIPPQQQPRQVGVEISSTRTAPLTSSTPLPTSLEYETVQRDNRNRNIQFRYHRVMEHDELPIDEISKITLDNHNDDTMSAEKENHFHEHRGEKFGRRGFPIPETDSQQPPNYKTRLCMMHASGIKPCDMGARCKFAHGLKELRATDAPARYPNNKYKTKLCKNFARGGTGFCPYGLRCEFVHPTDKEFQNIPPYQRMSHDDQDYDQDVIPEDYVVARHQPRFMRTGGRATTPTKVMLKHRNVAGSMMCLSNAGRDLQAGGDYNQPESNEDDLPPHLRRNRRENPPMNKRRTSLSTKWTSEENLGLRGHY
Briefly: potency of MEX-5 RNA-binding blockers – biochemical, C. elegans, fluorescence polarization, dose response (AID 1960).

Bounds are passed on as bounds.

Turning to `CCOC(=O)c1c(NC=C2C(=O)NC(=S)NC2=O)sc(C)c1C` [ethyl 2-[[4,6-bis(oxidanylidene)-2-sulfanylidene-1,3-diazinan-5-yl]methylideneamino]-4,5-dimethyl-thiophene-3-carboxylate], the EC50 was > 300 µM.

`COC(=O)c1[nH]c2cc(OC)c(OC)cc2c1CN=Nc1ccccc1` [methyl (3Z)-5,6-dimethoxy-3-[(2-phenylhydrazinyl)methylidene]indole-2-carboxylate]: the midpoint of the response, the EC50, lay at 20.3 µM.

The EC50 is the concentration giving half of the maximal effect. A high value points to a need for much substance.
